Active and inactive are the calls of the source. The calls are words filed in the database; no cut-off is given here.
Assays:
[1] = molecular target: RAC-alpha serine/threonine-protein kinase (Homo sapiens) (UniProt P31749); experiment: Inhibition of AKT phosphorylation in serum starved bFGF stimulated HFF cells at 20 uM preincubated for 10 mins followed by bFGF addition and measured after 20 mins by Western blotting analysis; format: cell-based; conditions: time 30.0 min
A549 = experiment: Antiproliferative activity against human A549 cells assessed as growth rate at 10 uM incubated for 48 hrs by MTT assay relative to control; format: functional; conditions: read-out: Activity
SK-BR-3 = experiment: Antiproliferative activity against human SK-BR-3 cells assessed as growth rate at 10 uM incubated for 48 hrs by MTT assay relative to control; format: functional; conditions: read-out: Activity
HFF [2] = experiment: Antiangiogenic activity in confluent HFF cells assessed as inhibition of cell migration at 20 uM incubated for 24 to 48 hrs by Hoechst 33342 staining based wound healing assay relative to control; format: functional, Homo sapiens; set-up: scale not given: the % may be the effect or the level left; conditions: time 24-48 hrs
HepG2 = experiment: Antiproliferative activity against human HepG2 cells assessed as growth rate at 10 uM incubated for 48 hrs by MTT assay relative to control; format: functional; conditions: read-out: Activity
MDA-MB-231 = experiment: Antiproliferative activity against human MDA-MB-231 cells assessed as growth rate at 10 uM incubated for 48 hrs by MTT assay relative to control; format: functional; conditions: read-out: Activity
[3] = Cytotoxicity against human GM06114 cells assessed as growth rate at 10 uM incubated for 48 hrs by MTT assay relative to control; format: toxicity, cell-based; conditions: gm06114, 48 h
HeLa = experiment: Antiproliferative activity against human HeLa cells assessed as growth rate at 10 uM incubated for 48 hrs by MTT assay relative to control; format: functional; conditions: read-out: Activity
MCF7 = experiment: Antiproliferative activity against human MCF7 cells assessed as growth rate at 10 uM incubated for 48 hrs by MTT assay relative to control; format: functional; conditions: read-out: Activity
SK-MEL-28 = experiment: Antiproliferative activity against human SK-MEL-28 cells assessed as growth rate at 10 uM incubated for 48 hrs by MTT assay relative to control; format: functional; conditions: read-out: Activity
[4] = molecular target: Mitogen-activated protein kinase; ERK1/ERK2 (Homo sapiens) (UniProt P27361+P28482); experiment: Inhibition of ERK1/2 phosphorylation in serum starved bFGF stimulated HFF cells assessed as residual phosphorylated ERK1/2 level at 20 uM preincubated for 10 mins followed by bFGF addition and measured after 20 mins by Western blotting analysis relative to control; format: cell-based; conditions: time 30.0 min
Mitogen-activated protein kinase; ERK1/ERK2 (Homo sapiens), sequence (P27361 whole entry, looked up): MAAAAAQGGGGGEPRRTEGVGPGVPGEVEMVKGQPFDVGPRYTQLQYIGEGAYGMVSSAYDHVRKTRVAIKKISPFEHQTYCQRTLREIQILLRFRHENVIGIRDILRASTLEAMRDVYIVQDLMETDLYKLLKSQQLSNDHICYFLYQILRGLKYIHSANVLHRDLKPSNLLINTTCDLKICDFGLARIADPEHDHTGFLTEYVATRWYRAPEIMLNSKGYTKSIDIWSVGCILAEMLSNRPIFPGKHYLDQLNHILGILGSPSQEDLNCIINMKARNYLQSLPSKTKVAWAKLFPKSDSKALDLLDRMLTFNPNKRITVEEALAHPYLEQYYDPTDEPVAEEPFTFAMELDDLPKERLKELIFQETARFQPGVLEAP
Mitogen-activated protein kinase; ERK1/ERK2 (Homo sapiens), sequence (P28482 whole entry, looked up): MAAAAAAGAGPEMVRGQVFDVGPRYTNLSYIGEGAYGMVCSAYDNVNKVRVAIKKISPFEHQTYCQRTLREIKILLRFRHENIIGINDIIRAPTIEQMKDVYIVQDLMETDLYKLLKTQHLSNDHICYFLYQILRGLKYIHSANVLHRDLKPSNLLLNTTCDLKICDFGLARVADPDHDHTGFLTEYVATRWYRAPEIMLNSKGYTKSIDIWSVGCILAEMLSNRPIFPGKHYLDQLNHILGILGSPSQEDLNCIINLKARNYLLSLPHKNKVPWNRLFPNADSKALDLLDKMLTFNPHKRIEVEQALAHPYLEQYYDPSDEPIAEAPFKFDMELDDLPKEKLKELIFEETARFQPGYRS

SK-OV-3 = experiment: Antiproliferative activity against human SK-OV-3 cells assessed as growth rate at 10 uM incubated for 48 hrs by MTT assay relative to control; format: functional; conditions: read-out: Activity
HUVEC [5] = experiment: Antiangiogenic activity in confluent VEGF stimulated HUVEC cells assessed as inhibition of cell migration at 20 uM incubated for 24 to 48 hrs by Hoechst 33342 staining based wound healing assay; format: functional; conditions: Homo sapiens, time 24-48 hrs
[6] = molecular target: RAC-alpha serine/threonine-protein kinase (Homo sapiens) (UniProt P31749); experiment: Inhibition of AKT phosphorylation in serum starved VEGF stimulated HUVEC cells at 20 uM preincubated for 10 mins followed by VEGF addition and measured after 20 mins by Western blotting analysis relative to control; format: cell-based; conditions: time 30.0 min
[7] = molecular target: RAC-alpha serine/threonine-protein kinase (Homo sapiens) (UniProt P31749); experiment: Inhibition of AKT phosphorylation in serum starved bFGF stimulated HFF cells assessed as residual activity at 20 uM preincubated for 10 mins followed by bFGF addition and measured after 20 mins by Western blotting analysis relative to control; format: cell-based; conditions: time 30.0 min
HFF [8] = experiment: Antiangiogenic activity in confluent HFF cells assessed as relative migration rate at 20 uM incubated for 48 hrs by Hoechst 33342 staining based wound healing assay relative to control; format: functional, Homo sapiens
HFF [9] = experiment: Antiangiogenic activity in confluent HFF cells assessed as relative migration rate at 20 uM incubated for 24 hrs by Hoechst 33342 staining based wound healing assay relative to control; format: functional, Homo sapiens
HFF [10] = experiment: Antiangiogenic activity in confluent HFF cells assessed as inhibition of cell migration at 20 uM incubated for 24 to 48 hrs by Hoechst 33342 staining based wound healing assay; format: functional; conditions: Homo sapiens, time 24-48 hrs
HUVEC [11] = experiment: Antiangiogenic activity in confluent VEGF stimulated HUVEC cells assessed as relative cell migration rate at 20 uM incubated for 24 hrs by Hoechst 33342 staining based wound healing assay relative to control; format: functional, Homo sapiens

RAC-alpha serine/threonine-protein kinase (Homo sapiens), sequence (P31749 whole entry): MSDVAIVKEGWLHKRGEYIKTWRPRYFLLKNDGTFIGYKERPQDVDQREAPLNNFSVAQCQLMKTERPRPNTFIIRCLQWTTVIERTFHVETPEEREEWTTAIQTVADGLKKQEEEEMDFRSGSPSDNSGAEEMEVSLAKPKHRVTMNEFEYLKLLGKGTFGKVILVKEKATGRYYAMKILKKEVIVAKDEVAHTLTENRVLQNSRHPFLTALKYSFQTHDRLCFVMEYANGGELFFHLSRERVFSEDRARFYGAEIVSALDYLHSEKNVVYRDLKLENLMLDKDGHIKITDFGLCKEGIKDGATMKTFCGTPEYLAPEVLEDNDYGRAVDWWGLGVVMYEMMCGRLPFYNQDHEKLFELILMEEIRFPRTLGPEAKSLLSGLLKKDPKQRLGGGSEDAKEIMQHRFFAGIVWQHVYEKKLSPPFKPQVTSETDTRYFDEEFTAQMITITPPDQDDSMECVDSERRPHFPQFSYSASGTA

SMILES	inhibition [1]	growth at 10 µM (A549)	growth at 10 µM (SK-BR-3)	Activity (HFF [2])	growth at 10 µM (HepG2)	growth at 10 µM (MDA-MB-231)	Activity [3]	growth at 10 µM (HeLa)	growth at 10 µM (MCF7)	growth at 10 µM (SK-MEL-28)	Activity [4]	growth at 10 µM (SK-OV-3)	Activity (HUVEC [5])	inhibition [6]	Activity [7]	Activity (HFF [8])	Activity (HFF [9])	Activity (HFF [10])	Activity (HUVEC [11])
CCCCC(Cn1nc(Nc2ccccc2Cl)c(C(=O)OCC)c1N)OC(=O)Nc1cccc(C(F)(F)F)c1 (stereo not drawn)	inactive	109%	106%	<60%	110%	133%	92.97%	84.3%	142%	121%	> 70%	127%	inactive	–	–	–	–	–	–
CCOC(=O)c1c(Nc2ccc(Cl)cc2)nn(CC(O)c2ccccc2)c1N (stereo not drawn)	–	116%	119%	–	102%	127%	113.67%	77.6%	125%	131%	> 70%	114%	inactive	21%	27.3%	<55%	<40%	–	–
CCCCC(O)Cn1nc(Nc2ccccc2C)c(C(=O)OCC)c1N (stereo not drawn)	Active	127%	110%	–	99.9%	127%	114.61%	99%	118%	121%	> 70%	115%	inactive	43%	–	–	–	Active	–
CCCCC(Cn1nc(Nc2ccccc2C)c(C(=O)OCC)c1N)OC(=O)Nc1cccc(C(F)(F)F)c1 (stereo not drawn)	inactive	81.7%	124%	–	106%	117%	110.05%	58.5%	110%	141%	> 70%	103%	inactive	29.7%	–	–	–	inactive	–
CCCCC(O)Cn1nc(Nc2cccc(Cl)c2)c(C(=O)OCC)c1N (stereo not drawn)	inactive	136%	108%	–	108%	140%	92.22%	117%	137%	106%	> 70%	128%	inactive	–	–	–	–	Active	–
CCCCC(Cn1nc(Nc2ccccc2)c(C(=O)OCC)c1N)OC(=O)Nc1cccc(C(F)(F)F)c1 (stereo not drawn)	inactive	98.1%	112%	–	107%	126%	96.63%	85.8%	141%	123%	> 70%	113%	inactive	–	–	–	–	inactive	–
CCCCC(O)Cn1nc(Nc2ccccc2)c(C(=O)OCC)c1N (stereo not drawn)	Active	130%	109%	–	102%	131%	97.13%	115%	147%	117%	> 70%	118%	inactive	43%	–	–	–	Active	–
CCOC(=O)c1c(Nc2ccccc2)nn(CC(O)c2ccccc2)c1N (stereo not drawn)	–	133%	112%	–	108%	131%	96.04%	111%	150%	114%	> 70%	118%	inactive	–	27.3%	<55%	<40%	–	–
CCCCC(O)Cn1nc(Nc2cccc(C)c2)c(C(=O)OCC)c1N (stereo not drawn)	Active	121%	107%	–	105%	113%	110.95%	98.2%	112%	110%	> 70%	114%	inactive	43%	–	–	10.57%	Active	–
CCOC(=O)c1c(Nc2ccc(C)cc2)nn(CC(OC(=O)Nc2cccc(C(F)(F)F)c2)c2ccccc2)c1N (stereo not drawn)	inactive	98.4%	124%	–	122%	124%	126.2%	81.4%	129%	129%	> 70%	131%	inactive	–	–	–	–	inactive	–
CCCCC(O)Cn1nc(Nc2ccc(C)cc2)c(C(=O)OCC)c1N (stereo not drawn)	Active	120%	105%	–	99%	134%	106.98%	109%	155%	122%	50%	112%	inactive	43%	–	14.34%	–	Active	–
CCCC(O)Cn1ncc(C(=O)OCC)c1NC(=O)Nc1cccc(C(F)(F)F)c1 (stereo not drawn)	–	–	–	–	–	–	–	–	–	–	–	–	inactive	59.1%	55.9%	31.37%	40.31%	–	56.54%
CCCCC(Cn1nc(Nc2ccc(C)cc2)c(C(=O)OCC)c1N)OC(=O)Nc1cccc(C(F)(F)F)c1 (stereo not drawn)	inactive	112%	110%	–	111%	149%	99.16%	97%	143%	123%	> 70%	129%	inactive	–	–	–	–	inactive	–
CCCCC(Cn1nc(Nc2ccc(Cl)cc2)c(C(=O)OCC)c1N)OC(=O)Nc1cccc(C(F)(F)F)c1 (stereo not drawn)	inactive	90.7%	118%	–	110%	117%	111.34%	76.5%	107%	136%	> 70%	106%	inactive	–	–	–	–	inactive	–
CCOC(=O)c1c(Nc2ccc(C)cc2)nn(CC(O)c2ccccc2)c1N (stereo not drawn)	–	118%	112%	–	102%	117%	105.89%	80%	119%	128%	> 70%	117%	inactive	16.2%	27.3%	<55%	<40%	–	–
CCOC(=O)c1c(Nc2ccccc2)nn(CC(OC(=O)Nc2cccc(C(F)(F)F)c2)c2ccccc2)c1N (stereo not drawn)	–	82.9%	125%	<60%	117%	113%	126.08%	60.6%	124%	115%	> 70%	120%	inactive	34.2%	–	–	–	–	–

From ChEMBL document CHEMBL5634087, “Novel 5-aminopyrazoles endowed with anti-angiogenetic properties: Design, synthesis and biological evaluation” (Eur J Med Chem, 2023)
